The values below come from patent US9580426B2, “Compounds that expand hematopoietic stem cells” (Novartis AG, priority 2008, dated 2017).

Structures are written as SMILES. Where a name gives a salt, the structure may show the parent alone.

One data set has as its system Primary adult CD34+ human hematopoietic stem cells (HSCs). In words: % CD34+ assay: HSC expansion screen, dose response. It counts as cell-based.
Settings: not given
As for the experimental part: Primary adult CD34^+ human hematopoietic stem cells (HSCs) are cultured and screened to identify compounds of the invention that facilitate HSC expansion. The cells are analyzed for the presence of the desired phenotype (CD34 expression). Compounds of the invention promote HSC expansion in a dose dependent manner.
Culture Medium: StemSpan SFEM medium is serum-free medium (StemCell Technologies, Vancouver, BC) supplemented with the following human recombinant cytokines: thrombopoietin, interleukin-6, Flt-3 ligand, and stem cell factor (all from R&D Systems, Minneapolis, Minn.), each at a final concentration of 50 ng/mL, with vehicle (DMSO) or a compound of the invention.
Human Cell Culture: Fresh human leukophoresed G-CSF mobilized peripheral blood from normal donors, CD34^+ cells from adult bone marrow and cryopreserved human cord blood CD34^+ cells are purchased from AllCells (Berkeley, Calif.). Human CD34^+ cells are enriched from leukophoresed G-CSF mobilized peripheral blood using magnetic cell sorting (MACS, Direct CD34 Progenitor Cell Isolation Kit, Miltenyi Biotec, Bergisch Gladbach, Germany) and cryopreserved. CD34^+ cell purity, checked by flow Cytometry, is higher than 90%. After thawing, the cell viability tested by trypan blue exclusion is higher than 70%. The thawed cells are centrifuged and resuspended with StemSpan medium before being aliquoted for immediate culture. Cells are plated at 10^4 cells/mL in a 384 well plate (Greiner Bio-One, Monroe, N.C.) with 50 μL of medium per well for 7 days. Every 7 days the cells are transferred to larger well plates and fresh medium is added to keep the cell density between 10^4 and 5×10^5 cells/mL. Cells were cultured at 37° C. in 5% CO2. For transplantation, cells were cultured in 75 cm^2 flasks before the cells were transplanted into mice. At a concentration of 1 micromolar, 4-(2-(2-(benzo[b]thiophen-3-yl)-9-isopropyl-9H-purin-6-ylamino)ethyl)phenol (compound 1, table 1; example 1), 4-(2-(2-(benzo[b]thiophen-3-yl)-9-sec-butyl-9H-purin-6-ylamino)ethyl)phenol (compound 2, table 1), and N-(2-(1H-indol-3-yl)ethyl)-2-(benzo[b]thiophen-3-yl)-9-isopropyl-9H-purin-6-amine (compound 9, table 1) each gives rise to a greater than 10-fold increase in the number of CD34^+ CD45RA^− cells derived from 1000 mPB CD34^+ HSCs after 21 days compared to vehicle. Compounds of the invention were assayed in a dose response format (1 nM to 10 μM) to determine the effective concentration that produced the desired effect in 50% of the cells (EC50).
As for `Cc1n[nH]c(C)c1CCCNc1nc(-c2csc3ccccc23)nc2c1ncn2C(C)C` [2-(benzo[b]thiophen-3-yl)-N-(3-(3,5-dimethyl-1H-pyrazol-4-yl)propyl)-9-isopropyl-9H-purin-6-amine], the “activity relative to example 1 (less active)” value is reported as approximately 20 fold.

The same data set, now with this note: Homo sapiens, Hematopoietic stem cell; dose response 1 nM to 10 μM; total number and/or percent of CD34+ cells.
One may read the EC50 as the concentration that produces a half-maximal response. Low readings indicate a more potent agent, high ones a less potent agent. As to `C=C(C)n1cnc2c(NCCc3c[nH]c4ccccc34)nc(-c3cncc(F)c3)nc21` [Example 173], the concentration for a half-maximal effect (EC50) is 12 nM. `CC(C)n1cnc2c(NCCc3ccc(O)nc3)nc(-c3cncc(F)c3)nc21` [Example 174]: the half-maximal effective concentration (EC50) is 2200 nM. Same read-out and setting: the value for `CC(C)n1cnc2c(NCCc3c[nH]c4ncccc34)nc(-c3cncc(F)c3)nc21` [Example 175] was 420 nM; that for `CCN(CC)CCOc1ccc2c(CCNc3nc(-c4cncc(F)c4)nc4c3ncn4C(C)C)c[nH]c2c1` [Example 176] was 1100 nM; that for `CC(C)n1cnc2c(NCCc3ccc(O)cc3)cc(-c3cncc(F)c3)nc21` [Example 177, 4-(2-(5-(5-Fluoropyridin-3-yl)-3-isopropyl-3H-imidazo[4,5-b]pyridin-7-ylamino)ethyl)phenol] was 140 nM.

Consider `CCC(C)n1cnc2c(NCCc3c[nH]c4ccccc34)nc(-n3ccnc3C)nc21` (stereo not shown) [Example 178], for which the midpoint of the response, the EC50, lay at 3 nM. `CCc1nccn1-c1nc(NCCc2ccc(O)cc2)c2ncn(C(C)C)c2n1` [Example 180] returned an EC50 of 130 nM. On the same count and under the same terms, the value for `CCCc1nccn1-c1nc(NCCc2ccc(O)cc2)c2ncn(C(C)C)c2n1` [Example 181] was 2500 nM. Same read-out and setting: the figure for `CC(C)n1cnc2c(NCCc3c[nH]c4cc(O)ccc34)nc(-c3cncc(F)c3)nc21` [Example 182] is 5100 nM; for `Cc1cncc(-c2nc(NCCc3c[nH]c4ccccc34)c3ncn(C(C)C)c3n2)c1` [Example 183] it is 10 nM; for `Cc1nccn1-c1nc(NCCc2c[nH]c3ccccc23)c2ncn(C(C)C)c2n1` [Example 184] it is 8 nM. With `Cc1cccc2c(CCNc3nc(-c4cncc(F)c4)nc4c3ncn4C(C)C)c[nH]c12` [Example 185], the midpoint of the response, the EC50, lay at 24 nM.

Take `Fc1cncc(-c2nc(NCCc3c[nH]c4ccccc34)c3ncn(C4COC4)c3n2)c1` [Example 186]: it took 7 nM to reach a half-maximal effect (EC50). `Cc1cncc(-c2nc(NCCc3c[nH]c4ccccc34)c3ncn(C4COC4)c3n2)c1` [Example 187]: the EC50 was 34 nM. On the same count and under the same terms, the figure for `CC(C)n1cnc2c(NCCc3c[nH]c4cc(F)ccc34)nc(-c3cncc(F)c3)nc21` [Example 188] is 5 nM. The compound `Cc1ccc2c(CCNc3nc(-c4cncc(F)c4)nc4c3ncn4C(C)C)c[nH]c2c1` [Example 189] returned a 50% effective concentration (EC50) of 26 nM.

The compound `Cc1[nH]c2ccccc2c1CCNc1nc(-c2cncc(F)c2)nc2c1ncn2C(C)C` [Example 190] yielded an EC50 of 5 nM. `CC(C)n1cnc2c(NCCc3c[nH]c4cccc(F)c34)nc(-c3cncc(F)c3)nc21` [Example 195] registered a half-maximal effective concentration (EC50) of 3 nM. On the same count and under the same terms, the figure for `CC(C)n1cnc2c(NCCc3c[nH]c4c(F)cccc34)nc(-c3cncc(F)c3)nc21` [Example 196] is 2 nM. Consider `Cc1cccc2[nH]cc(CCNc3nc(-c4cncc(F)c4)nc4c3ncn4C(C)C)c12` [Example 197], for which it took 11 nM to reach a half-maximal effect (EC50). The same measure, in the same setting: the figure for `CC(C)n1ccc2c(NCCc3ccc(O)cc3)nc(-c3csc4ccccc34)nc21` [Example 198] is 1100 nM. Regarding `CC(C)n1cnc2c(NCCc3cnc4[nH]ccc4c3)nc(-c3cccnc3)nc21` [Example 199], the EC50 amounted to 1600 nM.

`Cc1cc(CCNc2nc(-c3cncc(F)c3)nc3c2ncn3C(C)CO)ccc1O` (stereo not shown) [Example 200] returned an EC50 of 1 nM. With `CC(C)n1cnc2c(NCCc3c[nH]c4ccc(OC(=O)CCCCCNC(=O)CCCC[C@@H]5SC[C@@H]6NC(=O)N[C@@H]65)cc34)nc(-c3csc4ccccc34)nc21` [Example 210, 3-(2-(2-(benzo[b]thiophen-3-yl)-9-isopropyl-9H-purin-6-ylamino)ethyl)-1H-indol-5-yl 6-(5-((3aS,4S,6aR)-2-oxohexahydro-1H-thieno[3,4-d]imidazol-4-yl)pentanamido)hexanoate], the EC50 was 2100 nM.

The test system of a further data set is mPB-derived CD34+ cells. In words: Genome-wide transcriptional profiling. It counts as cell-based, human. Particulars: 1 μM; 24 hours. The text has this:
The two genes that were the most highly repressed by treatment with Example 1 (cytochrome P450 1B1 [CYP1B1] and the aryl hydrocarbon receptor repressor [AHRR]) are transcriptionally regulated by the aryl hydrocarbon receptor (AHR). Therefore, compounds of the invention could be acting as an antagonist of AHR signaling.
In the case of `Cc1n[nH]c(C)c1CCCNc1nc(-c2csc3ccccc23)nc2c1ncn2C(C)C` [2-(benzo[b]thiophen-3-yl)-N-(3-(3,5-dimethyl-1H-pyrazol-4-yl)propyl)-9-isopropyl-9H-purin-6-amine], the “down-regulation of 5 genes (most repressed: CYP1B1, AHRR)” value was “none were significantly affected”.

Still in this data set, the particulars now being: 24 hours.
In the case of `Cc1n[nH]c(C)c1CCCNc1nc(-c2csc3ccccc23)nc2c1ncn2C(C)C` [2-(benzo[b]thiophen-3-yl)-N-(3-(3,5-dimethyl-1H-pyrazol-4-yl)propyl)-9-isopropyl-9H-purin-6-amine], the “up-regulation of 5 genes of >50,000 probe sets” value was “induced to some degree”.

System in a further data set: not listed separately
In words: Water uptake by thermogravimetry after exposure to relative humidity. In kind it is physicochemical. The conditions noted are these: 80% rh during 24 hours. As for the experimental part:
Mesylate salt: 4-(2-(2-(benzo[b]thiophen-3-yl)-9-isopropyl-9H-purin-6-ylamino)ethyl)phenol free base (0.60 g; 1.40 mmoles) are dissolved in 12 ml acetone at 50° C. Methanesulfonic acid (0.137 g; 1.40 mmoles) is added drop wise. The crystallization takes place rapidly. The white suspension is allowed to cool over about 30 minutes with cooling to room temperature. The slurry is stirred for 18 hours at room temperature and filtered. The solid is washed with acetone (6 ml) in three portions and dried first for about 3 hours at 50° C./ca. 10 mbar and then for about 16 hours at 80° C./ca. 10 mbar. […] The water uptake was estimated by thermogravimetry after exposure to relative humidity (80% rh) during 24 hours. A water uptake of 0.4% was observed.
On to `CC(C)n1cnc2c(NCCc3ccc(O)cc3)nc(-c3csc4ccccc34)nc21` [Besylate salt, 4-(2-(2-(benzo[b]thiophen-3-yl)-9-isopropyl-9H-purin-6-ylamino)ethyl)phenol], for which the water uptake result is “about 0.05%”.

As for `CC(C)n1cnc2c(NCCc3ccc(O)cc3)nc(-c3csc4ccccc34)nc21` [Esylate salt, 4-(2-(2-(benzo[b]thiophen-3-yl)-9-isopropyl-9H-purin-6-ylamino)ethyl)phenol], the water uptake was 0.05%.

`CC(C)n1cnc2c(NCCc3ccc(O)cc3)nc(-c3csc4ccccc34)nc21` [Hemi-fumarate salt, 4-(2-(2-(benzo[b]thiophen-3-yl)-9-isopropyl-9H-purin-6-ylamino)ethyl)phenol] returned a water uptake of 0.3%. Consider `CC(C)n1cnc2c(NCCc3ccc(O)cc3)nc(-c3csc4ccccc34)nc21` [Hydrobromide salt, 4-(2-(2-(benzo[b]thiophen-3-yl)-9-isopropyl-9H-purin-6-ylamino)ethyl)phenol], for which the water uptake result was “No water uptake”. Still for that read-out and setting: the figure for `CC(C)n1cnc2c(NCCc3ccc(O)cc3)nc(-c3csc4ccccc34)nc21` [Hydrochloride salt, 4-(2-(2-(benzo[b]thiophen-3-yl)-9-isopropyl-9H-purin-6-ylamino)ethyl)phenol] is 0.3%; for `CC(C)n1cnc2c(NCCc3ccc(O)cc3)nc(-c3csc4ccccc34)nc21` [Mesylate salt, 4-(2-(2-(benzo[b]thiophen-3-yl)-9-isopropyl-9H-purin-6-ylamino)ethyl)phenol] it is 0.4%. Regarding `CC(C)n1cnc2c(NCCc3ccc(O)cc3)nc(-c3csc4ccccc34)nc21` [Napadisylate salt, 4-(2-(2-(benzo[b]thiophen-3-yl)-9-isopropyl-9H-purin-6-ylamino)ethyl)phenol], the water uptake entry was “less than 0.05%”. The compound `CC(C)n1cnc2c(NCCc3ccc(O)cc3)nc(-c3csc4ccccc34)nc21` [Orotate salt, 4-(2-(2-(benzo[b]thiophen-3-yl)-9-isopropyl-9H-purin-6-ylamino)ethyl)phenol] gave a water uptake of 1.7%. With `CC(C)n1cnc2c(NCCc3ccc(O)cc3)nc(-c3csc4ccccc34)nc21` [Sulfate salt, 4-(2-(2-(benzo[b]thiophen-3-yl)-9-isopropyl-9H-purin-6-ylamino)ethyl)phenol], the water uptake came out at 0.2%.

Consider `CC(C)n1cnc2c(NCCc3ccc(O)cc3)nc(-c3csc4ccccc34)nc21` [Tosylate salt, 4-(2-(2-(benzo[b]thiophen-3-yl)-9-isopropyl-9H-purin-6-ylamino)ethyl)phenol], for which the water uptake came out at 0.4%.
